Laboratory results reported in patent publication US8367873B2, “Phenyl-substituted bicyclooctane-1,3-dione derivatives” (Bayer Cropscience AG, priority 2008, dated 2013).

Assays:
Type in all cases: in vivo
Alopecurus myosuroides [1] = test: Herbicidal pre-emergence action; settings: pre-emergence method, 80 g/ha, greenhouse, visual assessment vs untreated controls
Method in brief: (§1)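 Visual percent effect relative to untreated controls (0% = like control, 100% = dead) assessed three weeks after treatment in the greenhouse. Compounds, as wettable powders in water (600 l/ha, 0.2% wetting agent), were sprayed at different amounts onto covering soil over seeds sown in sandy loam.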

Echinocloa crus-galli [2] = test: Herbicidal pre-emergence action; settings: pre-emergence method, 80 g/ha, greenhouse, visual assessment vs untreated controls
Method in brief: as §1

Lolium multiflorum [3] = test: Herbicidal pre-emergence action; settings: pre-emergence method, 80 g/ha, greenhouse, visual assessment vs untreated controls
Method in brief: as §1

Setaria viridis [4] = test: Herbicidal pre-emergence action; settings: pre-emergence method, 80 g/ha, greenhouse, visual assessment vs untreated controls
Method in brief: as §1

Alopecurus myosuroides [5] = test: Herbicidal post-emergence action; settings: post-emergence method; for herbicidal effect against ALOMY (Alopecurus myosuroides): 80 g/ha; for pest or weed control at 80 g/ha: Alopecurus myosuroides, 504 h, read-out: herbicidal effect against ALOMY (Alopecurus myosuroides)
Method in brief: (§2)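 One-leaf-stage greenhouse plants sprayed with WP at graded amounts (600 l/ha, 0.2% wetting agent); ~3 wk later, visual % effect rated vs untreated controls, 100% = dead, 0% = like control.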

Echinocloa crus-galli [6] = test: Herbicidal post-emergence action; settings: post-emergence method; for herbicidal effect against ECHCG (Echinochloa crus-galli): 80 g/ha; for pest or weed control at 80 g/ha: Echinochloa crus-galli, 504 h, read-out: herbicidal effect against ECHCG (Echinochloa crus-galli)
Method in brief: as §2

Lolium multiflorum [7] = test: Herbicidal post-emergence action; settings: post-emergence method; for herbicidal effect against LOLMU (Lolium multiflorum): 80 g/ha; for pest or weed control at 80 g/ha: Lolium multiflorum, 504 h, read-out: herbicidal effect against LOLMU (Lolium multiflorum)
Method in brief: as §2

Setaria viridis [8] = test: Herbicidal post-emergence action; settings: post-emergence method; for herbicidal effect against SETVI (Setaria viridis): 80 g/ha; for pest or weed control at 80 g/ha: Setaria viridis, 504 h, read-out: herbicidal effect against SETVI (Setaria viridis)
Method in brief: as §2

cereals = test: Container trials with cereals in the greenhouse, use of safeners (Mefenpyr 1 day prior to herbicide application)
Experimental: Seeds of monocotylidonous and dicotylidonous weed and crop plants are placed in sandy loam in wood fibre pots, covered with soil and cultivated in a greenhouse under good growth conditions. Two to three weeks after sowing, the test plants are treated at the one-leaf stage. The test compounds, formulated as wettable powders (WP), are then with a water application rate of 600 l/ha (converted), with 0.2% of wetting agent added, sprayed onto the green parts of the plants in different amounts. After the test plants have been kept in the greenhouse under optimum growth conditions for about three weeks, the effect of the preparations is assessed visually in comparison to untreated controls (herbicidal effect in percent: 100% effect=the plants have died, 0% effect=like control plants).
If it is to be additionally tested as to whether safeners can improve the plant compatibility of test substances in the case of crop plants, the following options are used for applying the safeners: • Seeds of the crop plants are, before sowing, dressed with safener substance (the amount of safener stated in percent, based on the weight of the seed) • Before the application of the test substances, the crop plants are sprayed with the safener at a certain application rate per hectare (usually one day before the application of the test substances) • The safener is applied together with the test substance as a tank mix (the amount of safener stated in g/ha or as a ratio, based on the herbicide).
Container Trials with Cereals in the Greenhouse

[9] = test system: monocotylidonous and dicotylidonous weed and crop plants; test: Herbicidal pre-emergence action (other test plants); settings: pre-emergence method, 80 g/ha, greenhouse, visual assessment vs untreated controls
Method in brief: as §1

[10] = test system: monocotylidonous and dicotylidonous weed and crop plants; test: Herbicidal post-emergence action (other test plants); settings: post-emergence method; for herbicidal effect against AVEFA (Avena fatua): 80 g/ha; for pest or weed control at 80 g/ha: 504 h, Avena fatua, read-out: herbicidal effect against AVEFA (Avena fatua)
Method in brief: as §2

[11] = 10 days after application, 12.5 g of a.i./ha
[12] = 10 days after application, 25 g of a.i./ha
[13] = 10 days after application, 50 g of a.i./ha
[14] = 28 days after application, 25 g of a.i./ha
[15] = 28 days after application, 50 g of a.i./ha
[16] = 28 days after application, 100 g of a.i./ha
[17] = 28 days after application, 12.5 g of a.i./ha

SMILES | herbicidal effect ALOMY (Alopecurus myosuroides [1]) [%] | herbicidal effect ECHCG (Echinocloa crus-galli [2]) [%] | herbicidal effect LOLMU (Lolium multiflorum [3]) [%] | herbicidal effect SETVI (Setaria viridis [4]) [%] | herbicidal effect against ALOMY (Alopecurus myosuroides) (Alopecurus myosuroides [5]) [%] | herbicidal effect against ECHCG (Echinochloa crus-galli) (Echinocloa crus-galli [6]) [%] | herbicidal effect against LOLMU (Lolium multiflorum) (Lolium multiflorum [7]) [%] | herbicidal effect against SETVI (Setaria viridis) (Setaria viridis [8]) [%] | Summer wheat observed (%) (cereals; [11]) | Summer wheat observed (%) (cereals; [12]) | Summer wheat observed (%) (cereals; [13]) | herbicidal effect AVEFA [9] [%] | herbicidal effect against AVEFA (Avena fatua) [10] [%] | Summer barley observed (%) (cereals; [14]) | Summer barley observed (%) (cereals; [15]) | Summer barley observed (%) (cereals; [16]) | Summer wheat observed (%) (cereals; [17]) | Summer wheat observed (%) (cereals; [14]) | Summer wheat observed (%) (cereals; [15]) | Summer wheat observed (%) (cereals; [16]) | also measured
CCc1cc(C)cc(CC)c1C1=C(O)[C@H]2CC3(C[C@H]2C1=O)OCCCCO3 (relative stereo) [I-a-13] | 90 | 100 | 100 | 90 | 90 | 100 | 100 | 90 | 40 | 50 | 60 | 80 | 90 |  |  |  |  |  |  |  | 
CCc1cc(C)cc(CC)c1C1=C(OC(=O)OC(C)C)[C@H]2C[C@]3(COC(C)(C)O3)C[C@H]2C1=O (relative stereo) [I-c-3] | 100 | 40 | 100 | 70 | 90 | 90 | 100 | 80 |  |  |  | 80 | 80 | 15 | 30 | 95 | 10 | 20 | 60 | 99 | 
CCc1cc(C)cc(CC)c1C1=C(O)[C@H]2C[C@]3(COC(C)(C)O3)C[C@H]2C1=O [I-a-2] | 90 | 90 | 100 | 50 |  |  |  |  |  |  |  | 50 |  |  |  |  | 40 | 50 | 60 |  | pest or weed control at 80 g/ha (Alopecurus myosuroides [5]): 100%; pest or weed control at 80 g/ha (Echinocloa crus-galli [6]): 100%; pest or weed control at 80 g/ha (Lolium multiflorum [7]): 100%; pest or weed control at 80 g/ha (Setaria viridis [8]): 90%; pest or weed control at 80 g/ha [10]: 70%
C=C1COC2(C[C@@H]3C(O)=C(c4c(CC)cc(C)cc4CC)C(=O)[C@@H]3C2)OC1 [I-a-3] | 100 | 100 | 100 | 100 |  |  |  |  |  |  |  | 80 |  | 20 | 60 | 70 | 10 | 60 | 70 | 85 | pest or weed control at 80 g/ha (Alopecurus myosuroides [5]): 90%; pest or weed control at 80 g/ha (Echinocloa crus-galli [6]): 100%; pest or weed control at 80 g/ha (Lolium multiflorum [7]): 100%; pest or weed control at 80 g/ha (Setaria viridis [8]): 100%; pest or weed control at 80 g/ha [10]: 90%
CCc1cc(C)cc(CC)c1C1=C(O)C2CC3(CC2C1=O)OCC(C)O3 (mixture of isomers) [I-a-10] | 70 | 80 | 100 | 60 | 90 | 100 | 100 | 90 | 30 | 50 | 60 | 50 | 80 |  |  |  |  |  |  |  | 
CCOC(=O)OC1=C(c2c(CC)cc(C)cc2CC)C(=O)[C@@H]2CC3(C[C@H]12)OCCCCO3 (relative stereo) [I-c-9] | 100 | 100 | 100 | 70 | 90 | 100 | 100 | 90 |  |  |  | 70 | 80 |  |  |  |  | 30 | 40 | 50 | 
CCc1cc(C)cc(CC)c1C1=C(O)[C@H]2CC3(C[C@H]2C1=O)OCC=CCO3 (relative stereo) [I-a-14] | 100 | 100 | 100 | 90 | 90 | 100 | 100 | 100 | 50 | 60 | 60 | 80 | 90 | 8 | 10 | 20 | 10 | 30 | 30 | 70 | Summer barley observed (%) (cereals; [17]): 5%
CCc1cc(C)cc(CC)c1C1=C(O)[C@H]2CC3(C[C@H]2C1=O)OCC(C)CO3 (relative stereo) [I-a-25] | 100 | 90 | 100 | 90 | 100 | 100 | 100 | 100 |  |  |  | 70 | 100 |  | 60 | 85 | 10 | 30 | 70 | 85 | 
